{"source": "patent US20090023780A1", "about": "(priority 2000, published 2009)", "system": "Sprague-Dawley rats", "assay": "Phase 1: specific effects of gacyclidine on the nociceptive threshold in rats (modified Randall-Selitto test)", "assay_type": "in vivo, rat", "conditions": "for analgesic effect per se: 0.1 mg/kg", "protocol": "All the experiments are carried out on Sprague-Dawley rats weighing 350-400 g; each experimental phase is carried out according to a similar plan: each experimental phase is carried out on 6 groups of 12 rats including one group of control animals. The test adopted to measure the nociceptive threshold is the Randall-Selitto Test modified according to Kayser et al. (1990) (Kayser V., Basbaum A. I. and Guilbaud G.,\nDeafferentation in the rat increase mechanical nociceptive threshold in the innervated limbs; Brain research ([…]), 508, 329-332), using a mechanical stimulus of increasing intensity (expressed in grams), the retained evoked response being the cry of the animal.\nThe general plan for an experimental phase is as follows: • arrival and housing of the animals: 4 days; • preparation of the animals allowing them to become familiar with the investigator and the experimental conditions and measurements in order to avoid any possibility of measurement bias being induced by stress: 14 days; • preparation and insertion of the catheters: 9 days; • post-operative rest (with antibiotic treatment) and determination of the stability of the experimental measurements (basic nociceptive threshold): 4 days; • testing of response to the different active ingredients: 9 days.\nThe 3 doses of gacyclidine retained: 0.1, 0.3 and 1 mg/kg, are injected by venous route using the catheter introduced into a jugular vein.\nAll the results are analyzed according to an ANOVA test.\nPhase 1: study of the specific effects of gacyclidine on the nociceptive threshold in rats.\n3 series of experiments each including 2 groups of animals of 12 rats are set up. • 1st series of experiments: • 1st group: the animals receive an injection of physiological saline solution. • 2nd group: the animals receive a dose of 0.1 mg/kg of gacyclidine.\n2nd series of experiments: • 1st group: the animals receive an injection of physiological saline solution. • 2nd group: the animals receive a dose of 0.3 mg/kg of gacyclidine.\n3rd series of experiments: • 1st group: the animals receive an injection of physiological saline solution. • 2nd group: the animals receive a dose of 1 mg/kg of gacyclidine.\nAll the animals in the 3 series of experiments are prepared during the same phase. The day of administration of the gacyclidine (or of the physiological saline solution) for each series is deferred by only 3 days in order to follow the evolution of the nociceptive threshold for several days following the administration of the pharmaceutical substances. The measurement of the nociceptive threshold is carried out over at least 4 hours after the injection of gacyclidine, at the rate of one measurement every 30 minutes then daily for at least one week.", "key": {"[1]": {"conditions": "gacyclidine alone, 0.1 mg/kg i.v."}}, "data": [{"substance": "1-[cis-2-methyl-1-(2-thienyl)cyclohexyl]piperidine [gacyclidine]", "values": [{"measurement": "psychomotor effect", "setting": "doses of 0.1 and 0.3 mg/kg", "value": "does not have any psychomotor effect"}, {"measurement": "motor effect per se", "setting": "[1]", "value": "neither analgesic effect nor motor effect"}, {"measurement": "analgesic effect per se", "setting": "[1]", "value": "neither analgesic effect nor motor effect"}, {"measurement": "analgesic effect per se", "setting": "gacyclidine alone, 0.1 mg/kg i.v., listed as thienylcyclohexylamine", "value": "does not per se cause any analgesic effect"}, {"measurement": "duration of analgesic effect (nociceptive threshold)", "setting": "gacyclidine alone, 0.3 mg/kg i.v.", "value": 30, "unit": "min"}, {"measurement": "duration of analgesic effect (nociceptive threshold)", "setting": "gacyclidine alone, 1 mg/kg i.v.", "value": "first hour"}, {"measurement": "motor effects", "setting": "gacyclidine alone, 1 mg/kg i.v. (strongest dose used)", "value": "induces motor effects"}]}]}
